From US20230218631A1 (priority 2020, published 2023)

What was measured:
Format in all cases: in vivo
[1] = tested on: wild-type mice; experiment: Dependence (CIE)-induced and forced swim stress+dependence escalated ethanol drinking under systemic UNC0642; settings: chronic 4 mg/kg UNC0642 for 15 days
Protocol: Systemic G9A inhibitor administration and dependence-potentiated and stress+dependence-potentiated drinking. […] Mice were then divided into 4 even groups. Mice were exposed to Air/No stress, Air/FSS, CIE/No Stress, or CIE/stress in a 2×2 design to assess the effects of UNC0642 on dependence drinking alone and dependence+stress. Chronic injections of either vehicle or 4 mg/kg UNC0642 were started during the “test 4” phase in FIG. 6A and continued for 15 days. Ethanol consumed was recorded daily.
Since systemic delivery of UNC0642 blocked stress-regulated ethanol drinking in mice, we tested whether systemic delivery of UNC0642 could block dependence-induced escalation of ethanol drinking also. […] Mice were then divided into 4 evenly matched groups. Mice were exposed to Air/No stress, Air/FSS, CIE/No Stress, or CIE/stress to assess the effects of UNC0642 on ethanol drinking influenced by alcohol dependence alone or stress+dependence. Chronic injections of either vehicle or 4 mg/kg UNC0642 were started during the “test 4” phase illustrated in FIG. 6A and continued for 15 days.

[2] = tested on: mice; experiment: Sucrose pellet self-administration, extinction and cue-induced reinstatement
Protocol: Mice were first injected with UNC0642 (2 mg/kg, i.p) or vehicle-alone once daily for 10 days. Thirty minutes following the 10th dose, they began the first 2-hour sucrose self-administration session. The UNC0642 and vehicle injections occurred 30 minutes before the start of each sucrose self-administration, extinction, and reinstatement session. All self-administration experiments occurred in standard operant chambers with two nose-poke detectors, a house light, and a cue light and tone generator (Med Associates, Fairfield, Vt.). All sucrose-paired nose-pokes, including those during the timeout, were recorded and are reported as “paired nose pokes”. No fasting occurred during any stage of the experiment. During the 2-hour sessions, mice were trained to nose-poke in the paired side on a fixed-ratio 1 (FR1) schedule with 15-second timeout period after delivery of a single sucrose pellet. Concurrent with the pellet delivery, a cue tone and cue light (which is located immediately above the paired nose-poke port) are activated. All mice had ten self-administration sessions. […] Finally, we examined the number of nose-pokes on the paired side during timeout periods. Similar to the paired nose-poke data above, there was a slight effect on the interaction between UNC0642 treatment and sex. […] Overall, UNC0642 had no effect on sucrose-taking behavior as all groups increased their responding for sucrose pellets over time, and they learned and remembered the relationship between the reinforced (sucrose-paired) and the non-reinforced (unpaired) ports.
Sucrose-seeking behaviors were next tested in these same mice. Following a 7-day period in the home cage with ad libitum food and water, all mice began extinction training for 6 consecutive days (a model of context-associated sucrose-seeking behavior). […] Finally, light/tone cue-induced reinstatement behavior (a model of discreet cue-induced sucrose-seeking behavior) was tested one day after the 6th extinction session in a single 2-hour session. Mice were allowed to nose-poke for light and tone cues without receiving pellets. […] We also found UNC0642 had no effect on UNC0642 on the number of unpaired nose pokes during cue induced reinstatement of sucrose pellet self-administration (FIG. 9J; Three-Way ANOVA, Day: F1,26=6.739, p=0.0153, Sex: F1,26=6.739, p=0.0153, no other significant effects) and UNC0642 had no effect on the discrimination ratio between paired and unpaired nose pokes during cue-induced reinstatement of sucrose pellet self-administration (FIG. 9K; Three-Way ANOVA, Sex: F1,26=5.880, p=0.0226, no other significant effects).

[3] = tested on: wild-type mice (both male and female); experiment: Drinking in the Dark binge-like ethanol drinking; settings: 2 mg/kg i.p. for 10 days, 30 min before session, 20% ethanol, both sexes
Protocol: Since UNC0642 blocked stress-potentiated ethanol drinking in mice, as show above, we next tested whether UNC0642 could alter binge-like ethanol drinking in both sexes. Wild-type mice (both male and female) were given ethanol for 1 week in a “Drinking in the Dark” paradigm (Rhodes et al., 2005), a well-established alcohol model that is similar to binge-drinking in humans. Both male and female mice were given a single bottle of 20% ethanol in their home cage for 2 hours per day for 3 days. No alternative bottle of water was given in this experiment. On the 4th day, the access to the bottle was extended to 4 hours to model a binge-drinking session. After the first week, mice were split into even groups and were injected with UNC0642 (2 mg/kg, i.p.) or vehicle for 10 days 30 minutes before each drinking session began. Mice were tested for changes in baseline drinking and binge drinking for 2 weeks. […] Our data detected the well-documented sex differences in alcohol intake in these assays, but there was no significant interaction between sex and UNC0642 treatment.

SMILES: COc1cc2c(NC3CCN(C(C)C)CC3)nc(N3CCC(F)(F)CC3)nc2cc1OCCCN1CCCC1 [UNC0642, 2-(4,4-Difluoropiperidin-1-yl)-6-methoxy-N-[1-(propan-2-yl)piperidin-4-yl]-7-[3-(pyrrolidin-1-yl)propoxy]quinazolin-4-amine]
- dependence-induced ethanol drinking during test 5 week ([1]; CIE vs Air, no stress, FIG. 6B left panel): significant reduction
- stress+dependence ethanol drinking, test 5 ([1]; forced swim stress plus CIE, FIG. 6B right panel): also suppressed
- number of sucrose pellets earned during sucrose pellet self-administration ([2]; 2 mg/kg i.p. once daily, 30 min before session, FR1, FIG. 9A): no effect
- number of paired nose pokes during extinction learning following sucrose pellet self-administration ([2]; 2 mg/kg i.p., 6 extinction days, FIG. 9F): no effect
- number of unpaired nose pokes during sucrose pellet self-administration ([2]; 2 mg/kg i.p., FIG. 9C): no effect
- discrimination ratio between paired and unpaired nose pokes during sucrose pellet self-administration ([2]; 2 mg/kg i.p., FIG. 9D): no effect
- unpaired nose-pokes during extinction learning following sucrose pellet self-administration ([2]; 2 mg/kg i.p., FIG. 9G): no effect
- discrimination ratio between paired and unpaired nose pokes during extinction learning ([2]; 2 mg/kg i.p., FIG. 9H): no effect
- number of paired nose pokes during cue induced reinstatement of sucrose pellet self-administration ([2]; 2 mg/kg i.p., FIG. 9I): no effect
- number of unpaired nose pokes during cue induced reinstatement of sucrose pellet self-administration ([2]; 2 mg/kg i.p., FIG. 9J): no effect
- discrimination ratio between paired and unpaired nose pokes during cue-induced reinstatement ([2]; 2 mg/kg i.p., FIG. 9K): no effect
- paired nose-pokes during self-administration, female mice ([2]; 2 mg/kg i.p., female mice in UNC0642 group, Day X Treatment interaction, FIG. 9B): slight increase
- timeout responding, female mice ([2]; 2 mg/kg i.p., female mice in UNC0642 group, FIG. 9E): slightly higher
- number of paired nose pokes during sucrose pellet self-administration ([2]; 2 mg/kg i.p., overall, FIG. 9B): no overall effect
- number of timeout responses on the paired nose port during sucrose pellet self-administration ([2]; 2 mg/kg i.p., overall, FIG. 9E): no overall effect
- single-bottle alcohol drinking, baseline 2 hour sessions ([3]; FIG. 8A): no effect
- binge alcohol drinking, 4-hour binge sessions ([3]; FIG. 8B): no effect
